pIC50: −log10 of the molar value. Like-named read-outs stand apart in the source and are kept apart here.

For one assay, the system named is A2780 cells. The assay is described as follows: Assay 2: In-Vitro Cell Proliferation Assay (A2780 cells, SRB readout, 72 hours).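 Note: viable cells counted via sulforhodamine B staining, absorbance at 570 nm, after 72 h exposure at 37 °C, DMSO 0.1% as control, media-only background subtracted.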 It counts as cell-based. To be noted: A2780 cells, 72 hours, SRB, read-out: Cell Proliferation (IC50).
For the next assay, the target named is NAMPT (Homo sapiens (Human), UniProt P43490). The assay is described as follows: Assay 1: Biochemical Inhibition Assay (NAMPT enzymatic reaction, NMN quantified by mass spectrometry).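 Note: recombinant His-tagged human NAMPT preincubated with compound 15 min, then reacted 30 min at rt with 1 µM NAM, 100 µM PRPP, 2.5 mM ATP, NMN product read by RapidFire MS, normalized to L-Cystathionine internal standard.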 The note with it: read-out: Biochemical (IC50).
NAMPT, sequence (P43490 whole entry): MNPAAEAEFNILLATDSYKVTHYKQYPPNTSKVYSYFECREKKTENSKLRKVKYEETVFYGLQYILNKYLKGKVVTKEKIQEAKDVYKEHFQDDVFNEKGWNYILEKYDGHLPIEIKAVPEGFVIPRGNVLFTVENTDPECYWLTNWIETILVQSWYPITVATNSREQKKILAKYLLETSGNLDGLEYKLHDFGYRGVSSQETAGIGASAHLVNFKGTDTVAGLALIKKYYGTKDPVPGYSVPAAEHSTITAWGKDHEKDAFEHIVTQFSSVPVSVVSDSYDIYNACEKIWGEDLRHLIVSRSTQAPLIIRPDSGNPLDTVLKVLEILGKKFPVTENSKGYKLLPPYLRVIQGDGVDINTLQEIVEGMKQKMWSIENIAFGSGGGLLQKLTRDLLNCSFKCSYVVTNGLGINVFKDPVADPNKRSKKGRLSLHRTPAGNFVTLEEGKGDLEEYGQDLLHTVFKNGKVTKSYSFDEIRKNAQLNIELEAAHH

With `CCN1CCC([S+]([O-])c2ccc(CNC(=O)N3Cc4ccncc4C3)cc2)CC1` (stereo not drawn) [Example 385, N-[[4-[(1-ethyl-4-piperidyl)sulfinyl]phenyl]methyl]-1,3-dihydropyrrolo[3,4-c]pyridine-2-carboxamide], the pIC50 in the assay on A2780 cells (Homo sapiens, A2780, 72 h) was 7.25; at NAMPT it was 7.52.

`O=C(NCc1ccc(S(=O)(=O)N2CC3CCC(F)(F)C3C2)cc1)c1ccc2nccn2c1` (single isomer, unassigned) [Example 74, cis-Imidazo[1,2-a]pyridine-6-carboxylic acid 4-(4,4-difluoro-hexahydro-cyclopenta[c]pyrrole-2-sulfonyl)-benzylamide]: the pIC50 with A2780 cells was 8.57; at NAMPT it was 8.30.

For `CC(C)(C)OC(=O)N[C@@]12C[C@@H]1CN(S(=O)(=O)c1ccc(CNC(=O)c3ccc4nccn4c3)cc1)C2` (racemic) [Example 132, cis-[3-(4-{[(Imidazo[1,2-a]pyridine-6-carbonyl)-amino]-methyl}-benzenesulfonyl)-3-aza-bicyclo[3.1.0]hex-1-yl]-carbamic acid tert-butyl ester], the pIC50 in the assay with A2780 cells (Homo sapiens, A2780, 72 h) is 8.49; at NAMPT it was 7.71.

As for `O=C(NCc1ccc(S(=O)(=O)N2CCCCC2)cc1)c1ccn2nccc2c1` [Example 48, Pyrazolo[1,5-a]pyridine-5-carboxylic acid 4-(piperidine-1-sulfonyl)-benzylamide], the pIC50 was 5.70 in the assay with A2780 cells (Homo sapiens, A2780, 72 h) and 7.34 at NAMPT.

For the compound `O=C(NCc1ccc(S(=O)(=O)N2CC3CCC(C2)O3)cc1)c1cnc2nccn2c1` [Example 26, Imidazo[1,2-a]pyrimidine-6-carboxylic acid 4-(8-oxa-3-aza-bicyclo[3.2.1]octane-3-sulfonyl)-benzylamide], the pIC50 with A2780 cells (Homo sapiens, A2780, 72 h) is 6.87; on NAMPT, 8.34.

Take `O=C(NCc1ccc(S(=O)(=O)N2CC3(CCOCC3)C2)cc1)c1cnc2[nH]ncc2c1` [Example 269, N-[[4-(7-oxa-2-azaspiro[3.5]nonan-2-ylsulfonyl)phenyl]methyl]-1H-pyrazolo[3,4-b]pyridine-5-carboxamide]: the pIC50 with A2780 cells (Homo sapiens, A2780, 72 h) was 7.35; at NAMPT, 6.95.

On to `CC(C)(C)OC(=O)N1C[C@@H]2OCCN(S(=O)(=O)c3ccc(CNC(=O)c4ccc5nccn5c4)cc3)[C@@H]2C1` (racemic) [Example 130, cis-4-(4-{[(Imidazo[1,2-a]pyridine-6-carbonyl)-amino]-methyl}-benzenesulfonyl)-hexahydro-pyrrolo[3,4-b][1,4]oxazine-6-carboxylic acid tert-butyl ester], for which the pIC50 in the assay on A2780 cells was 7.95; at NAMPT it was 7.12.

Take `O=C(NCc1ccc(S(=O)(=O)C2CCN(S(=O)(=O)c3ccccc3)C2)cc1)c1cnc2[nH]ncc2c1` (stereo not drawn) [Example 346, N-[[4-[1-(benzenesulfonyl)pyrrolidin-3-yl]sulfonylphenyl]methyl]-1H-pyrazolo[3,4-b]pyridine-5-carboxamide]: the pIC50 was 6.70 in the assay on A2780 cells (Homo sapiens, A2780, 72 h) and 6.99 on NAMPT.

As for `O=C(NCc1ccc(S(=O)(=O)N2CCOCC2)cc1)c1ccc2nccn2c1` [Example 10, Imidazo[1,2-a]pyridine-6-carboxylic acid 4-(morpholine-4-sulfonyl)-benzylamide], the pIC50 with A2780 cells (Homo sapiens, A2780, 72 h) is 7.83; at NAMPT it was 7.60.

As for `CCCN1CCC([S@+]([O-])c2ccc(CNC(=O)c3cc4ccncc4o3)cc2)CC1` [Example 383, N-[[4-[(S)-(1-propyl-4-piperidyl)sulfinyl]phenyl]methyl]furo[2,3-c]pyridine-2-carboxamide], the pIC50 was 8.19 with A2780 cells and 7.45 on NAMPT.

Consider `O=C(NCc1ccc(S(=O)(=O)C2CCN(C3CCOCC3)CC2)cc1)c1ccc2nccn2c1` [Example 69, Imidazo[1,2-a]pyridine-6-carboxylic acid 4-[1-(tetrahydro-pyran-4-yl)-piperidine-4-sulfonyl]-benzylamide], for which the figures for the pIC50 with A2780 cells and at NAMPT were 8.33 and 7.87, respectively.

Regarding `COC1CCN(S(=O)(=O)c2ccc(CNC(=O)c3cc4ccncc4o3)cc2)CC1` [Example 7, Furo[2,3-c]pyridine-2-carboxylic acid 4-(4-methoxy-piperidine-1-sulfonyl)-benzylamide], the pIC50 in the assay with A2780 cells (Homo sapiens, A2780, 72 h) is 7.88; on NAMPT it was 7.96.

In the case of `O=C(NCc1ccc(S(=O)(=O)N2CCOC3CNCC32)cc1)c1ccc2nccn2c1` (stereo not drawn) [Example 327, N-[[4-(3,4a,5,6,7,7a-hexahydro-2H-pyrrolo[3,4-b][1,4]oxazin-4-ylsulfonyl)phenyl]methyl] imidazo[1,2-a]pyridine-6-carboxamide], the pIC50 is 5.70 with A2780 cells (Homo sapiens, A2780, 72 h) and 5.89 on NAMPT.

Consider `O=C(NCc1ccc(S(=O)(=O)N2CCC[C@@H](O)C2)cc1)c1cc2ccncc2o1` [Example 82, Furo[2,3-c]pyridine-2-carboxylic acid 4-((R)-3-hydroxy-piperidine-1-sulfonyl)-benzylamide], for which the pIC50 in the assay on A2780 cells was 7.46; on NAMPT, 7.58.

On to `O=C(NCc1ccc(S(=O)(=O)C2CCN(C3CCOCC3)CC2)cc1)c1cnc2nccn2c1` [Example 78, Imidazo[1,2-a]pyrimidine-6-carboxylic acid 4-[1-(tetrahydro-pyran-4-yl)-piperidine-4-sulfonyl]-benzylamide], for which the pIC50 in the assay on A2780 cells is 7.32; at NAMPT it was 8.40.

Take `CN1CCN(S(=O)(=O)c2ccc(CNC(=O)c3ccc4nccn4c3)cc2)CC1` [Example 17, Imidazo[1,2-a]pyridine-6-carboxylic acid 4-(4-methyl-piperazine-1-sulfonyl)-benzylamide]: the pIC50 is 7.27 in the assay with A2780 cells (Homo sapiens, A2780, 72 h) and 7.00 on NAMPT.

As for `O=C(NCc1ccc(S(=O)(=O)C2CCCOC2)cc1)c1cc2cnccc2[nH]1` (racemic) [Example 154, 1H-Pyrrolo[3,2-c]pyridine-2-carboxylic acid 4-(tetrahydro-pyran-3-sulfonyl)-benzylamide], the pIC50 in the assay on A2780 cells (Homo sapiens, A2780, 72 h) is 7.73; at NAMPT, 7.48.

In the case of `CC(=O)N1C[C@@H]2C[C@H]1CN2S(=O)(=O)c1ccc(CNC(=O)c2ccc3nccn3c2)cc1` (racemic) [Example 163, cis-Imidazo[1,2-a]pyridine-6-carboxylic acid 4-(5-acetyl-2,5-diaza-bicyclo[2.2.1]heptane-2-sulfonyl)-benzylamide], the pIC50 in the assay with A2780 cells (Homo sapiens, A2780, 72 h) is 7.24; at NAMPT, 7.09.

Values taken from patent US10696692B2, “Amido-benzyl sulfone and sulfoxide derivates” (Forma TM, LLC, priority 2012, dated 2020).
